From patent publication US11896573B2, “Pharmaceutical compositions and pharmacokinetics of a gamma-hydroxybutyric acid derivative” (priority 2020, dated 2024)
Like-named read-outs stand apart in the source and are kept apart here.

Experiment: Single ascending dose study, plasma pharmacokinetics of Compound (1) and GHB
Format: in vivo, human
Conditions: fasted; for Tmax / AUC(0-inf) / AUC(0-t) / Cmax / half-life: human, plasma; for Tmax: read-out: Compound (1) plasma Tmax, Median; for AUC(0-inf) / AUC(0-t) / Cmax / half-life: po
Method: The plasma concentrations of Compound (1) and GHB in plasma in healthy human subjects were measured using liquid chromatography tandem mass-spectroscopy and evaluated using PHOENIX™ WINNONLIN® version 8.1 (Pharsight Corporation, USA) and MICROSOFT® EXCEL® (Microsoft Corporation, USA).
All randomized subjects who received Compound (1), with available pharmacokinetic (PK) data and without relevant deviations interfering with the PK evaluations, were included. Subjects who received only placebo were excluded from the PK population. In addition, the PK population was used for the summaries and analyses of all PK data.
A randomized, double-blind, single-center, single ascending dose study was undertaken to evaluate the safety, tolerability, and pharmacokinetics of Compound (1) and GHB in healthy subjects.
Compound (1) was administered to randomized healthy subjects at doses from 0.1 g to 7.25 g as an aqueous solution of Compound (1) in water. The subjects fasted for at least 10 hours overnight with clear liquids allowed prior to dosing and the subjects were fasted for 4 hours after dosing.
Plasma samples were obtained at various times following oral administration and the plasma concentrations of Compound (1) and GHB were measured.

[1] = Cohort 7 (7.25 g) single oral dose

## CC(C)[C@H](N)C(=O)OCCCC(=O)O [Compound (1), 4-((L-valyl)oxy)butanoic acid]
[1]
  Compound (1) CL/F, Max: 433 L/h
  Compound (1) CL/F, Mean: 376 L/h
  Compound (1) CL/F, Median: 375 L/h
  Compound (1) CL/F, Min: 298 L/h
  Compound (1) plasma AUC0-inf, Max: 24300 ng·h/mL
  Compound (1) plasma AUC0-inf, Min: 16700 ng·h/mL
  Compound (1) plasma AUC0-tlast, Max: 24300 ng·h/mL
  Compound (1) plasma AUC0-tlast, Min: 16700 ng·h/mL
  Compound (1) plasma Cmax, Max: 26000 ng/mL
  Compound (1) plasma t1/2, Max: 1.28 h
  Compound (1) plasma t1/2, Min: 0.92 h
  Tmax: 0.62 h
0.1 g, Cohort 1 (0.10 g) single oral dose
  Tmax: 0.25 h
0.5 g, Cohort 2 (0.50 g) single oral dose
  Tmax: 0.75 h
1.5 g, Cohort 3 (1.50 g) single oral dose
  Tmax: 1 h
4.5 g, Cohort 5 (4.50 g) single oral dose
  Tmax: 0.75 h
0.1 g, Cohort 1 (0.10 g) single oral dose, read-out: Compound (1) plasma AUC0-inf, Mean
  AUC(0-inf): 250 ng·h/mL
0.1 g, Cohort 1 (0.10 g) single oral dose, read-out: Compound (1) plasma AUC0-inf, Median
  AUC(0-inf): 252 ng·h/mL
0.1 g, Cohort 1 (0.10 g) single oral dose, read-out: Compound (1) plasma AUC0-tlast, Mean
  AUC(0-t): 249 ng·h/mL
0.1 g, Cohort 1 (0.10 g) single oral dose, read-out: Compound (1) plasma AUC0-tlast, Median
  AUC(0-t): 250 ng·h/mL
0.1 g, Cohort 1 (0.10 g) single oral dose, read-out: Compound (1) plasma Cmax, Mean
  Cmax: 420 ng/mL
0.1 g, Cohort 1 (0.10 g) single oral dose, read-out: Compound (1) plasma Cmax, Median
  Cmax: 373 ng/mL
0.1 g, Cohort 1 (0.10 g) single oral dose, read-out: Compound (1) plasma t1/2, Mean (converted)
  half-life: 0.7 h
0.1 g, Cohort 1 (0.10 g) single oral dose, read-out: Compound (1) plasma t1/2, Median (converted)
  half-life: 0.71 h
0.5 g, Cohort 2 (0.50 g) single oral dose, read-out: Compound (1) plasma AUC0-inf, Mean
  AUC(0-inf): 1290 ng·h/mL
0.5 g, Cohort 2 (0.50 g) single oral dose, read-out: Compound (1) plasma AUC0-inf, Median
  AUC(0-inf): 1280 ng·h/mL
0.5 g, Cohort 2 (0.50 g) single oral dose, read-out: Compound (1) plasma AUC0-tlast, Mean
  AUC(0-t): 1290 ng·h/mL
0.5 g, Cohort 2 (0.50 g) single oral dose, read-out: Compound (1) plasma AUC0-tlast, Median
  AUC(0-t): 1280 ng·h/mL
0.5 g, Cohort 2 (0.50 g) single oral dose, read-out: Compound (1) plasma Cmax, Mean
  Cmax: 1540 ng/mL
0.5 g, Cohort 2 (0.50 g) single oral dose, read-out: Compound (1) plasma Cmax, Median
  Cmax: 1270 ng/mL
0.5 g, Cohort 2 (0.50 g) single oral dose, read-out: Compound (1) plasma t1/2, Mean (converted)
  half-life: 1.11 h
0.5 g, Cohort 2 (0.50 g) single oral dose, read-out: Compound (1) plasma t1/2, Median (converted)
  half-life: 1.19 h
1.5 g, Cohort 3 (1.50 g) single oral dose, read-out: Compound (1) plasma AUC0-inf, Mean
  AUC(0-inf): 2480 ng·h/mL
1.5 g, Cohort 3 (1.50 g) single oral dose, read-out: Compound (1) plasma AUC0-inf, Median
  AUC(0-inf): 2710 ng·h/mL
1.5 g, Cohort 3 (1.50 g) single oral dose, read-out: Compound (1) plasma AUC0-tlast, Mean
  AUC(0-t): 2860 ng·h/mL
1.5 g, Cohort 3 (1.50 g) single oral dose, read-out: Compound (1) plasma AUC0-tlast, Median
  AUC(0-t): 2960 ng·h/mL
1.5 g, Cohort 3 (1.50 g) single oral dose, read-out: Compound (1) plasma Cmax, Mean
  Cmax: 3360 ng/mL
1.5 g, Cohort 3 (1.50 g) single oral dose, read-out: Compound (1) plasma Cmax, Median
  Cmax: 2920 ng/mL
1.5 g, Cohort 3 (1.50 g) single oral dose, read-out: Compound (1) plasma t1/2, Mean (converted)
  half-life: 1.04 h
1.5 g, Cohort 3 (1.50 g) single oral dose, read-out: Compound (1) plasma t1/2, Median (converted)
  half-life: 1.06 h
3 g, Cohort 4 (3.00 g) single oral dose, read-out: Compound (1) plasma AUC0-inf, Mean
  AUC(0-inf): 7520 ng·h/mL
3 g, Cohort 4 (3.00 g) single oral dose, read-out: Compound (1) plasma AUC0-inf, Median
  AUC(0-inf): 7410 ng·h/mL
3 g, Cohort 4 (3.00 g) single oral dose, read-out: Compound (1) plasma AUC0-tlast, Mean
  AUC(0-t): 7510 ng·h/mL
3 g, Cohort 4 (3.00 g) single oral dose, read-out: Compound (1) plasma AUC0-tlast, Median
  AUC(0-t): 7410 ng·h/mL
3 g, Cohort 4 (3.00 g) single oral dose, read-out: Compound (1) plasma Cmax, Mean
  Cmax: 11300 ng/mL
3 g, Cohort 4 (3.00 g) single oral dose, read-out: Compound (1) plasma Cmax, Median
  Cmax: 11200 ng/mL
3 g, Cohort 4 (3.00 g) single oral dose, read-out: Compound (1) plasma t1/2, Mean (converted)
  half-life: 1.15 h
3 g, Cohort 4 (3.00 g) single oral dose, read-out: Compound (1) plasma t1/2, Median (converted)
  half-life: 1.12 h
4.5 g, Cohort 5 (4.50 g) single oral dose, read-out: Compound (1) plasma AUC0-inf, Mean
  AUC(0-inf): 11400 ng·h/mL
4.5 g, Cohort 5 (4.50 g) single oral dose, read-out: Compound (1) plasma AUC0-inf, Median
  AUC(0-inf): 11600 ng·h/mL
4.5 g, Cohort 5 (4.50 g) single oral dose, read-out: Compound (1) plasma AUC0-tlast, Mean
  AUC(0-t): 11100 ng·h/mL
4.5 g, Cohort 5 (4.50 g) single oral dose, read-out: Compound (1) plasma AUC0-tlast, Median
  AUC(0-t): 11600 ng·h/mL
4.5 g, Cohort 5 (4.50 g) single oral dose, read-out: Compound (1) plasma Cmax, Mean
  Cmax: 12800 ng/mL
4.5 g, Cohort 5 (4.50 g) single oral dose, read-out: Compound (1) plasma Cmax, Median
  Cmax: 14000 ng/mL
4.5 g, Cohort 5 (4.50 g) single oral dose, read-out: Compound (1) plasma t1/2, Mean (converted)
  half-life: 1.14 h
4.5 g, Cohort 5 (4.50 g) single oral dose, read-out: Compound (1) plasma t1/2, Median (converted)
  half-life: 1.13 h
6 g, Cohort 6 (6.00 g) single oral dose, read-out: Compound (1) plasma AUC0-inf, Mean
  AUC(0-inf): 18400 ng·h/mL
6 g, Cohort 6 (6.00 g) single oral dose, read-out: Compound (1) plasma AUC0-inf, Median
  AUC(0-inf): 18000 ng·h/mL
6 g, Cohort 6 (6.00 g) single oral dose, read-out: Compound (1) plasma AUC0-tlast, Mean
  AUC(0-t): 18400 ng·h/mL
6 g, Cohort 6 (6.00 g) single oral dose, read-out: Compound (1) plasma AUC0-tlast, Median
  AUC(0-t): 18000 ng·h/mL
6 g, Cohort 6 (6.00 g) single oral dose, read-out: Compound (1) plasma Cmax, Mean
  Cmax: 17600 ng/mL
6 g, Cohort 6 (6.00 g) single oral dose, read-out: Compound (1) plasma Cmax, Median
  Cmax: 16500 ng/mL
6 g, Cohort 6 (6.00 g) single oral dose, read-out: Compound (1) plasma t1/2, Mean (converted)
  half-life: 1.18 h
6 g, Cohort 6 (6.00 g) single oral dose, read-out: Compound (1) plasma t1/2, Median (converted)
  half-life: 1.18 h
7.25 g, Cohort 7 (7.25 g) single oral dose, read-out: Compound (1) plasma AUC0-inf, Mean
  AUC(0-inf): 19600 ng·h/mL
7.25 g, Cohort 7 (7.25 g) single oral dose, read-out: Compound (1) plasma AUC0-inf, Median
  AUC(0-inf): 19400 ng·h/mL
7.25 g, Cohort 7 (7.25 g) single oral dose, read-out: Compound (1) plasma AUC0-tlast, Mean
  AUC(0-t): 19600 ng·h/mL
7.25 g, Cohort 7 (7.25 g) single oral dose, read-out: Compound (1) plasma AUC0-tlast, Median
  AUC(0-t): 19400 ng·h/mL
7.25 g, Cohort 7 (7.25 g) single oral dose, read-out: Compound (1) plasma Cmax, Mean
  Cmax: 22100 ng/mL
7.25 g, Cohort 7 (7.25 g) single oral dose, read-out: Compound (1) plasma Cmax, Median
  Cmax: 22200 ng/mL
7.25 g, Cohort 7 (7.25 g) single oral dose, read-out: Compound (1) plasma t1/2, Mean (converted)
  half-life: 1.11 h
7.25 g, Cohort 7 (7.25 g) single oral dose, read-out: Compound (1) plasma t1/2, Median (converted)
  half-life: 1.12 h
Cohort 4 (3.00 g) single oral dose
  Tmax: 0.5 h
Cohort 6 (6.00 g) single oral dose
  Tmax: 0.5 h
